“Also recorded” adds a separate entry of the source.
Columns and labels:
Assay type in all cases: cell-based
[1] = molecular target: T1, human μ-opioid receptor, OPRM (Homo sapiens, UniProt P35372); assay: PathHunter β-arrestin 2 assay, OPRM cell line
T1 construct: host or cells: HEK-293 overexpressing β-arrestin2 fused to a β-galactosidase fragment
Description: (§1) Human embryonic kidney 293 (HEK-293) cells which transfected overexpress (3-arrestin2 fused β-galactosidase fragment were purchased from DiscoverX. Human OPRM1 gene (NM 000914.3, encoding human μ-opioid receptor, OPRM) and Human OPRD1 gene (NM 000911.3, encoding human δ-opioid receptor, OPRD) were fused to a pCMV-ProLink plasmid which contains complementary β-galactosidase fragment purchased from DiscoverX. To generate human OPRM1 or OPRD1 expression cell lines, HEK-293 cells were transfected to prepared plasmid and grown in DMEM medium with 10% fetal bovine serum, 150 μg/mL Hygromycin B and 500 μg/mL G418.
(§2) The PathHunter enzyme assay was performed to measure the agonist's capability of β-arrestin 2 pathway activation. When agonists bind to G protein-coupled receptor (GPCR), the receptor pathway is sequentially activated from G protein to β-arrestin 2 recruitment.
(§3) Because […] β-arrestin 2 and C-terminal of GPCR have a fragment of β-galactosidase, recruitment of β-arrestin 2 to GPCR forms the whole β-galactosidase. The functionality of the whole β-galactosidase is detected by chemiluminescence (FlexStation3, Molecular Devices).
(§4) cAMP and β-arrestin assays described above were conducted to decide whether candidate compounds were μ- and/or δ-opioid receptor bias agonists for the G-protein pathway. All assays produced the concentration-response curve, and the curve data was validated by a quality control factor named Z′ factor. Because half-maximal effect concentration (EC50) depends on the population of receptors, the maximal asymptote of the concentration curve was used. Efficacy data of candidates was normalized by comparison to reference agonists DAMGO and SNC80 for OPRM and OPRD.

[2] = molecular target: T2, human δ-opioid receptor, OPRD (Homo sapiens, UniProt P41143); assay: cAMP accumulation assay (Gi pathway), OPRD cell line
T2 construct: host or cells: HEK-293 overexpressing β-arrestin2 fused to a β-galactosidase fragment
Description: as §1
(§5) Cyclic Adenosine Monophosphate (cAMP) Accumulation
(§6) The agonist's efficacy to the G protein pathway was determined by changes in the cAMP level using the Cisbio cAMP detection kit. The cells used in cAMP assays are the same cell line as used in the β-arrestin 2 assays. The human opioid receptor activates the Gαi so intracellular cAMP accumulation is inhibited. Cisbio detection kit uses labeled cAMP and antibody. This system proceeds to compete with endogenous cAMP. If Gαi is activated, intracellular cAMP decreases. This assures that labeled-cAMP binds more with the antibody so that time-resolved fluorescence […].
as §4
(§7) The hill slope describes the steepness of the curve. […] We set the appropriate interval of hill slope as 0.8<n<1.5 which maintains the sigmoidal curve shape.

[3] = molecular target: T2, human δ-opioid receptor, OPRD; assay: PathHunter β-arrestin 2 assay, OPRD cell line
Description: as §1, §2, §3, §4

[4] = molecular target: T1, human μ-opioid receptor, OPRM; assay: cAMP accumulation assay (Gi pathway), OPRM cell line
Description: as §1, §5, §6, §4, §7

[5] = molecular target: T1, human μ-opioid receptor, OPRM; assay: Dominant assay: cAMP assay with/without irreversible antagonist β-FNA, OPRM cell line; details: for Emax: Example 3, Tables 5-7
Description: (§8) To confirm the agonist's efficacy in a nature-like system, we need inactivation of target receptors on the cell membrane. Most cell lines have an abundant target receptor population (also known as spare receptors). Therefore, agonists have more opportunity to constitute agonist-receptor conformation. In this environment, not only full agonists but also partial agonists can reach maximal response.
(§9) If the partial agonist is selected as a full agonist, translational in vivo research will likely fail.
(§10) Non-competitive, irreversible antagonists can be applicable to judge the pharmacological character of agonists because they permanently decrease the receptor population in the cell line system. β-FNA or β-CNA is used as a non-competitive and irreversible antagonist for OPRM, OPRD. Before cAMP assay, cells were incubated with β-FNA or β-CNA for 40 minutes. Afterwards, the procedure is the same.
(§11) If a partial agonist compound acts as a full agonist due to receptor population (pseudo full agonist), it cannot sustain maximal response with reduced receptor population. However, a full agonist compound maintains their maximal response even though increased EC50.

[6] = molecular target: T2, human δ-opioid receptor, OPRD; assay: Dominant assay: cAMP assay with/without irreversible antagonist β-CNA, OPRD cell line; details: for EC50 / Emax: Example 3, Tables 5-7
Description: as §8, §9, §10, §11

[7] = Table 1, cAMP concentration-response curve

T1 sequence (P35372 whole entry, the tested form may be a part): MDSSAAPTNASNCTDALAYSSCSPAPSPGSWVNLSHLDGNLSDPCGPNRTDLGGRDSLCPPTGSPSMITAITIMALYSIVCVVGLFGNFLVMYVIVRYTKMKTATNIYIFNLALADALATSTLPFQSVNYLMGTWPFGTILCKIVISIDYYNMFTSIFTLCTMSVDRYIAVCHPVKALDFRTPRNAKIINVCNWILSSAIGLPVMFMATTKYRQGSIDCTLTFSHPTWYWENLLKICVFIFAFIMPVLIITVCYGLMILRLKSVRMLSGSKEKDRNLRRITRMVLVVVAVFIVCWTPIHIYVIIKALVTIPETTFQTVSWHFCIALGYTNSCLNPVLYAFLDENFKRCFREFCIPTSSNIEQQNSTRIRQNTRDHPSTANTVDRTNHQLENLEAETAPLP
T2 sequence (P41143 whole entry, the tested form may be a part): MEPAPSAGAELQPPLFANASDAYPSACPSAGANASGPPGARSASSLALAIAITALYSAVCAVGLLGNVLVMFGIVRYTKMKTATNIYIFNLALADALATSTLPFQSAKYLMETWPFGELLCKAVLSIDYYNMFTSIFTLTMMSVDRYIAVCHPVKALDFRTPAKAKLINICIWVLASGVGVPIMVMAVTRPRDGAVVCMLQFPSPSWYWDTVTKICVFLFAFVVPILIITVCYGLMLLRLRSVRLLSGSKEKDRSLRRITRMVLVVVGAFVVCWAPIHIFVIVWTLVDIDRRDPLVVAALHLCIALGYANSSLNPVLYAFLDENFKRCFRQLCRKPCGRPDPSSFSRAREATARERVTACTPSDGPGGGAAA

Question: Which Emax ([1]; Example 3, Tables 5-7, read-out: OPRM β-ARR2 Emax (%)) does the source give for COc1ccsc1CNCC[C@@]1(c2ccccn2)CCOC2(CCCC2)C1 [TRV130, reference compound] here?
Answer: Its Emax is 2.4%.

Question: What about the Emax ([1]; Table 1, normalized to reference agonist DAMGO, read-out: OPRM arrestin Emax, %) of the same compound?
Answer: The Emax was 2.41%.

Question: And the EC50 [2]?
Answer: Its EC50 is 2040 nM.

Question: What about the “OPRD Gi Hill slope” value [2, 7] of the same compound?
Answer: Its value is 1.28.

Question: What about the Emax ([2]; Table 1, cAMP, normalized to reference agonist SNC80) of the same compound?
Answer: The Emax was 63.4%.

Question: What about the Emax ([3]; Example 3, Tables 5-7, read-out: OPRD β-ARR2 Emax (%)) of the same compound?
Answer: Its Emax is 9.6%.

Question: And the Emax ([3]; Table 1, normalized to reference agonist SNC80, read-out: OPRD arrestin Emax, %)?
Answer: The Emax was 9.6%.

Question: What about the “Gi pathway agonism, in words” value ([4]; OPRM) of the same compound?
Answer: The value was “full agonism”.

Question: What about the “OPRM Gi Hill slope” value [4, 7] of the same compound?
Answer: Its value is 0.35.

Question: What about the Emax ([4]; Table 1, cAMP, normalized to reference agonist DAMGO) of the same compound?
Answer: Its Emax is 101%.

Question: What about the “maximal response on decreasing receptor population (dominant tendency), in words” value ([5]; OPRM cell lines, β-FNA) of the same compound?
Answer: Its value is “susceptible to decreasing receptor populations than DAMGO; also recorded: attenuates the efficacy; also recorded: more susceptible to decreasing receptor populations than DAMGO”.

Question: What about the Emax ([5]; addition of β-FNA, read-out: OPRM Gi β-FNA (+) Emax (%)) of the same compound?
Answer: Its Emax is 56.3%.

Question: And the Emax ([5]; no addition of β-FNA, read-out: OPRM Gi β-FNA (−) Emax (%))?
Answer: Its Emax is 89.5%.

Question: And the EC50 ([6]; OPRD Gi β-CNA (+) EC50 (nM), addition of β-CNA)?
Answer: Its EC50 is 1200 nM.

Question: And the EC50 ([6]; OPRD Gi β-CNA (−) EC50 (nM), no addition of β-CNA)?
Answer: Its EC50 is 1.49 nM.

Question: What about the “maximal response on decreasing receptor population (dominant tendency), in words” value ([6]; OPRD cell lines, β-CNA) of the same compound?
Answer: The value was “more susceptible to decreasing receptor populations than SNC80; also recorded: less resistance to decreasing spare receptors than SNC80”.

Question: What about the “completeness of concentration-response curve, in words” value ([6]; OPRD system) of the same compound?
Answer: Its value is “produced a full concentration-response curve”.

Question: And the Emax ([6]; addition of β-CNA, read-out: OPRD Gi β-CNA (+) Emax (%))?
Answer: The Emax was 67.2%.

Question: And the Emax ([6]; no addition of β-CNA, read-out: OPRD Gi β-CNA (−) Emax (%))?
Answer: The Emax was 73.9%.
